From ChEMBL document CHEMBL1201862, “PubChem BioAssay data set” (2004)
Calls of active or inactive are those of the source.

Tests used:
[1] = molecular target: T1, Tyrosine-protein phosphatase non-receptor type 22 (Homo sapiens, UniProt Q9Y2R2); format: functional
T1 sequence (Q9Y2R2 whole entry): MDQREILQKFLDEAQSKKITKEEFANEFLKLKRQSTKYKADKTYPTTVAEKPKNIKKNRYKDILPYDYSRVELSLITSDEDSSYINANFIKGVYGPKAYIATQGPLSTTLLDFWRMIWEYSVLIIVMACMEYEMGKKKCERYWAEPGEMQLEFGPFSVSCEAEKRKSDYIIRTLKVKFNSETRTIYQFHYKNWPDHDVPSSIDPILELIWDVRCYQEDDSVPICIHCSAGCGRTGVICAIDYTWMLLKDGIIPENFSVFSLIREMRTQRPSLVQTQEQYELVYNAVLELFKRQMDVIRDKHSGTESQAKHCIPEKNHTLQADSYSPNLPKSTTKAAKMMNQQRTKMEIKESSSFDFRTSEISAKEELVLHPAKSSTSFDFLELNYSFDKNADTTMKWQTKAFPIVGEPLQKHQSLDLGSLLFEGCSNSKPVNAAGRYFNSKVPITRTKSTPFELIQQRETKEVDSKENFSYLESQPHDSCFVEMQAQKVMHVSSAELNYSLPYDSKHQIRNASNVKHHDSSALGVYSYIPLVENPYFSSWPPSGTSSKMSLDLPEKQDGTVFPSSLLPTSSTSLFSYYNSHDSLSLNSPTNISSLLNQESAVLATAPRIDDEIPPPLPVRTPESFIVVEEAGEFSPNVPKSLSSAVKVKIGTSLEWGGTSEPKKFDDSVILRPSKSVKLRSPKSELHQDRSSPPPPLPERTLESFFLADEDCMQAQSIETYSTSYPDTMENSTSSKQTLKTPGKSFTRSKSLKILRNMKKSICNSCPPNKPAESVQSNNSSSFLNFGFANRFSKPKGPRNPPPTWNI

[2] = molecular target: T1, Tyrosine-protein phosphatase non-receptor type 22; format: functional; remark: listed apart in the source
[3] = molecular target: T2, Tyrosine-protein phosphatase non-receptor type 7 (Homo sapiens, UniProt P35236); format: functional
T2 sequence (P35236 whole entry): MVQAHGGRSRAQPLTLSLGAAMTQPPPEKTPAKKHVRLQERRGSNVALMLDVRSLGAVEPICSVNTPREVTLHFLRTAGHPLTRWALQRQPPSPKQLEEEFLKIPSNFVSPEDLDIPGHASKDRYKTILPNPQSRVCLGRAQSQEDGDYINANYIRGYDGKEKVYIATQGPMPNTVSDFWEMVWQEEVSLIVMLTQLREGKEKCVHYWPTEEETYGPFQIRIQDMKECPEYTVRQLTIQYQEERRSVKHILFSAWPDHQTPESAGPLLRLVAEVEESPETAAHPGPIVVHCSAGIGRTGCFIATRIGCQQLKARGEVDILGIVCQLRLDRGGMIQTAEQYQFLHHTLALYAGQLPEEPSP

Cytochrome P450 2D6 = Cytochrome P450 2D6 (Homo sapiens, UniProt P10635);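 further: CYP2D6 member of a cytochrome P450 panel assay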
Sequence of Cytochrome P450 2D6 (P10635 whole entry): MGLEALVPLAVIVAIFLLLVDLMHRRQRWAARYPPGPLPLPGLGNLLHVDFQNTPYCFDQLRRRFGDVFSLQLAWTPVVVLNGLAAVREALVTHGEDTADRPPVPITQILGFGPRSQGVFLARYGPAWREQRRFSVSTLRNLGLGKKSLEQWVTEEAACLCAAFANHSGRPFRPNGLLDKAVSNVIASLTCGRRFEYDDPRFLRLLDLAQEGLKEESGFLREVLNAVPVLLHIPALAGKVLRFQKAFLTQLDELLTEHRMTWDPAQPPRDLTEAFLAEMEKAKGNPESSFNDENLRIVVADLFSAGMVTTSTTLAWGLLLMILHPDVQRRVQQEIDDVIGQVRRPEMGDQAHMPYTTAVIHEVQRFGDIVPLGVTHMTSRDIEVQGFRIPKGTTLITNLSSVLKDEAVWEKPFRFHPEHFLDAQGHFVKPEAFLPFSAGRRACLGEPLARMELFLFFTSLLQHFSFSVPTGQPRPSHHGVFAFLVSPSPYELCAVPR

Cytochrome P450 3A4 = Cytochrome P450 3A4 (Homo sapiens, UniProt P08684);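 further: CYP3A4 tested as one member of a cytochrome P450 panel screen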
Sequence of Cytochrome P450 3A4 (P08684 whole entry): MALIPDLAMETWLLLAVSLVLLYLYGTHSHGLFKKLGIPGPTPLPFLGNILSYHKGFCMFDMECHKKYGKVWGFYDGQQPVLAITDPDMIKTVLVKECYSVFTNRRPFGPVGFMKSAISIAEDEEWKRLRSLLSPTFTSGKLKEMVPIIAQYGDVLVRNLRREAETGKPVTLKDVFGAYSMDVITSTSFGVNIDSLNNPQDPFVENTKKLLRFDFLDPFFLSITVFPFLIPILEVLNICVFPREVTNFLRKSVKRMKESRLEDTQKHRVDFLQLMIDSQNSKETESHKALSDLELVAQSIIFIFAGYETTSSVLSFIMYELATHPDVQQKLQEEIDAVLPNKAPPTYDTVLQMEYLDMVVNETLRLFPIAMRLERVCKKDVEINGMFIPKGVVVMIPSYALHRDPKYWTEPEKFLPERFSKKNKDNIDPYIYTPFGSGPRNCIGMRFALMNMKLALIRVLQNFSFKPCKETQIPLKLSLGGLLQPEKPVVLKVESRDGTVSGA

[4] = molecular target: Glucose-6-phosphate 1-dehydrogenase (Homo sapiens, UniProt P11413); assay: human G6PD enzyme inhibitors, dose response, selectivity assay for P. falciparum G6PD inhibitor project, biochemical, fluorescence (AID 504792); format: functional
Sequence of Glucose-6-phosphate 1-dehydrogenase (P11413 whole entry): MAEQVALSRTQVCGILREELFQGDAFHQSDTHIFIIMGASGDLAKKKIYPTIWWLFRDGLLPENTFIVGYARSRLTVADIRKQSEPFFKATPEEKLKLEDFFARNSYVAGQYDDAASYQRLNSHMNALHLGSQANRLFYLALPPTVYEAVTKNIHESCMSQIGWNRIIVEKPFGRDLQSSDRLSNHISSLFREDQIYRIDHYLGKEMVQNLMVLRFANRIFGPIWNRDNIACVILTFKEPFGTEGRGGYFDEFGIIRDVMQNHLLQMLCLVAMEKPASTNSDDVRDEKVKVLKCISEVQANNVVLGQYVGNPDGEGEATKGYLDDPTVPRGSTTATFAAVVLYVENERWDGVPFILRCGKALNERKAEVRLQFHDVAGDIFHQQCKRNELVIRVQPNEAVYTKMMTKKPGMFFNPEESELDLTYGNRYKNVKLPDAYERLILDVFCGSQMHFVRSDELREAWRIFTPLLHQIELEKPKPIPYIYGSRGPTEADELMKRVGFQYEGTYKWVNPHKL

HEK293 [5] = assay: cells; format: functional, cell-based; conditions: Homo sapiens
[6] = molecular target: Nucleotide-binding oligomerization domain-containing protein 2 (Homo sapiens, UniProt Q9HC29); assay: NOD2 signaling inhibitors, cell-based, luminescence, uHTS, HEK293 (AID 1566); format: functional
Sequence of Nucleotide-binding oligomerization domain-containing protein 2 (Q9HC29 whole entry, the tested form may be a part): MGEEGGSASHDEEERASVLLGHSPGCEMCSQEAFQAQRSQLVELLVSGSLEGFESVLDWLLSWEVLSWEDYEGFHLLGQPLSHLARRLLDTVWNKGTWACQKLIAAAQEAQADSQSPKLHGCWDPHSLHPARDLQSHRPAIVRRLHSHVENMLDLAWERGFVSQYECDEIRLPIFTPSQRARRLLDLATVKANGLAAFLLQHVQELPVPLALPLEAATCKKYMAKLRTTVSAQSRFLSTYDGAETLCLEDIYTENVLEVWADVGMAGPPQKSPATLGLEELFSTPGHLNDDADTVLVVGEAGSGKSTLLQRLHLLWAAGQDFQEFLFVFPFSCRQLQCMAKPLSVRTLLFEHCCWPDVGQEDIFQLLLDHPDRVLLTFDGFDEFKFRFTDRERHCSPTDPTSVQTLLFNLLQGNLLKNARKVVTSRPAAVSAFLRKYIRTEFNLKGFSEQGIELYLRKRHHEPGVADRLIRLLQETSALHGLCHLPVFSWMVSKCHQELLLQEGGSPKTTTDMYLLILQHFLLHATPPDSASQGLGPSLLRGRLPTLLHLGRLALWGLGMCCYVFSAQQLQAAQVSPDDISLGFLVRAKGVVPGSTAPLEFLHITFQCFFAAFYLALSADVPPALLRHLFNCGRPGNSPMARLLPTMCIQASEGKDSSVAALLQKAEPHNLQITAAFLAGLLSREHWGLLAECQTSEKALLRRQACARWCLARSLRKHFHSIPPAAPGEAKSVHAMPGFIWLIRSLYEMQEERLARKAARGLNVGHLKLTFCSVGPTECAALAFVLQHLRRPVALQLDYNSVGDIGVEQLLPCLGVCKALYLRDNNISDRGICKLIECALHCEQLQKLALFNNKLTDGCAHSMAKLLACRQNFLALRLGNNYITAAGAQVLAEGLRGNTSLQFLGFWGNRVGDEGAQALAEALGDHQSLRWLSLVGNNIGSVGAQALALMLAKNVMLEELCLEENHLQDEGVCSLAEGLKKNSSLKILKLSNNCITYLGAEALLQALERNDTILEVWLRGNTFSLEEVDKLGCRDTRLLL

HEK293 [7] = assay: NOD1 signaling inhibitors, primary screen, cell-based, luminescence, uHTS (AID 1578); format: functional; conditions: Homo sapiens
HEK293 [8] = assay: cells; format: functional, cell-based; conditions: Homo sapiens; remark: listed apart in the source
HEK293 [9] = assay: NOD2 signaling inhibitors in MDP-stimulated cells, cell-based, uHTS, luminescence (AID 2001); format: functional; conditions: Homo sapiens
HEK293 [10] = assay: cells; format: functional, cell-based; conditions: Homo sapiens; remark: listed apart in the source
[11] = molecular target: T3, Lysine-specific demethylase 4C (Homo sapiens, UniProt Q9H3R0); assay: GASC-1 (JMJD2C) histone demethylase inhibitors, dose response, biochemical, DELFIA europium, cherry-picked samples (AID 488835); format: functional
T3 sequence (Q9H3R0 whole entry): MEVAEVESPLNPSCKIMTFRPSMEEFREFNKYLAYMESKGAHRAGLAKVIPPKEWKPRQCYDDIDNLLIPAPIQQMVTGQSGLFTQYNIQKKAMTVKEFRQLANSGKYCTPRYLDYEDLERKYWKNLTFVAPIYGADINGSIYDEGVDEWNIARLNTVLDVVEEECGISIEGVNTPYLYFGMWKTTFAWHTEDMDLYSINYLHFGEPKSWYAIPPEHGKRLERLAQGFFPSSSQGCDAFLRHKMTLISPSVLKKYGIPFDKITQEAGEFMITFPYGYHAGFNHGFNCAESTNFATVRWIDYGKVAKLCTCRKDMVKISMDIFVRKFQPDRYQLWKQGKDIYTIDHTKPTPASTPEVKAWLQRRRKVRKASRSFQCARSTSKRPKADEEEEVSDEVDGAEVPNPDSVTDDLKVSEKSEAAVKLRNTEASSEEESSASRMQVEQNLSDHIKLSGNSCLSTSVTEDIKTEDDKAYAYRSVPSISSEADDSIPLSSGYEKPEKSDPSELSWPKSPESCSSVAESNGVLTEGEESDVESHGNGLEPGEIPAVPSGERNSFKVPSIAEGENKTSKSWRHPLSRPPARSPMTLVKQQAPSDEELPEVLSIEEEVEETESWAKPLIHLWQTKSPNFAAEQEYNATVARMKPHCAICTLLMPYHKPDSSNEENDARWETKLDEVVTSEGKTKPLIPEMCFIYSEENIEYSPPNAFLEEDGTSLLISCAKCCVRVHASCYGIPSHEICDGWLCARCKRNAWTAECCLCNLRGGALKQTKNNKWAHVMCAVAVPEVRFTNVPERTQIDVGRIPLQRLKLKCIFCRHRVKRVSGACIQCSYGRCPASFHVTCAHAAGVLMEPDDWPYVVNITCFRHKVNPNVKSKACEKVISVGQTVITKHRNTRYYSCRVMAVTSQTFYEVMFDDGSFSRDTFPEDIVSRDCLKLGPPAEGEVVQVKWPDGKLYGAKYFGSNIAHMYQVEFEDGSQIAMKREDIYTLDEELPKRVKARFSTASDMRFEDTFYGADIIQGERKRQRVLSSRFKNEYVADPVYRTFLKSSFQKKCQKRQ

Cytochrome P450 2C9 = Cytochrome P450 2C9 (Homo sapiens, UniProt P11712)
Sequence of Cytochrome P450 2C9 (P11712 whole entry): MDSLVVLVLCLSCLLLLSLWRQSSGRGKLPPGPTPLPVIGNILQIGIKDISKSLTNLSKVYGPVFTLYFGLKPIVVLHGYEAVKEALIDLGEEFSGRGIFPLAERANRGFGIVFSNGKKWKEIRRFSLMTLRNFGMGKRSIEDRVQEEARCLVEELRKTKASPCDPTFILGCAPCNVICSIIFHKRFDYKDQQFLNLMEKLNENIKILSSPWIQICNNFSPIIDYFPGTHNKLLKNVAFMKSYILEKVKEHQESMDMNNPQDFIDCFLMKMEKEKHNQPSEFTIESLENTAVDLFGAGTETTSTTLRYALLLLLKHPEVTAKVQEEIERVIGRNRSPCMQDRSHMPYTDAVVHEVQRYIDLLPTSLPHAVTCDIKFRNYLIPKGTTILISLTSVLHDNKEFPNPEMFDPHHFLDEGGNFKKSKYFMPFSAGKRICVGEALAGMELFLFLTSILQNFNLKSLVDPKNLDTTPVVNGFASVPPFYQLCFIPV

Cytochrome P450 1A2 = molecular target: T4, Cytochrome P450 1A2 (Homo sapiens, UniProt P05177);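 further: PubChem cytochrome P450 panel assay, CYP1A2 panel member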
T4 sequence (P05177 whole entry): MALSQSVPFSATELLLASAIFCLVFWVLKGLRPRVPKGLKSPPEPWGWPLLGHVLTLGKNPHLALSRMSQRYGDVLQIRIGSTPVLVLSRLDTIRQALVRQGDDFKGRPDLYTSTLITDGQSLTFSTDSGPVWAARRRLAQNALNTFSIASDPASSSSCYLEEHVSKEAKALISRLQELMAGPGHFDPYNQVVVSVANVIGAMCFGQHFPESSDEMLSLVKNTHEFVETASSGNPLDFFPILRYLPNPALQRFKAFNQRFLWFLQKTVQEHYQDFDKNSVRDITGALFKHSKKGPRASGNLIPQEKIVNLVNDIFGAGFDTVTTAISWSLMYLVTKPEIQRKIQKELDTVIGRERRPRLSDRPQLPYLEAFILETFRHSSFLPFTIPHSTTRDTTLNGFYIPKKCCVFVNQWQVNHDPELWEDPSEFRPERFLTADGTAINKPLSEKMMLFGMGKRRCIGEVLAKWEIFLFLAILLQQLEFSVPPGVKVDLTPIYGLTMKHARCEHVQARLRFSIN

Cytochrome P450 2C19 = Cytochrome P450 2C19 (Homo sapiens, UniProt P33261); assay: Cytochrome panel assay with activity outcomes. Panel member name: p450-cyp2c19 Compounds with AC50 equal or less than 10 uM are considered active; format: functional; conditions: read-out: AC50
Sequence of Cytochrome P450 2C19 (P33261 whole entry): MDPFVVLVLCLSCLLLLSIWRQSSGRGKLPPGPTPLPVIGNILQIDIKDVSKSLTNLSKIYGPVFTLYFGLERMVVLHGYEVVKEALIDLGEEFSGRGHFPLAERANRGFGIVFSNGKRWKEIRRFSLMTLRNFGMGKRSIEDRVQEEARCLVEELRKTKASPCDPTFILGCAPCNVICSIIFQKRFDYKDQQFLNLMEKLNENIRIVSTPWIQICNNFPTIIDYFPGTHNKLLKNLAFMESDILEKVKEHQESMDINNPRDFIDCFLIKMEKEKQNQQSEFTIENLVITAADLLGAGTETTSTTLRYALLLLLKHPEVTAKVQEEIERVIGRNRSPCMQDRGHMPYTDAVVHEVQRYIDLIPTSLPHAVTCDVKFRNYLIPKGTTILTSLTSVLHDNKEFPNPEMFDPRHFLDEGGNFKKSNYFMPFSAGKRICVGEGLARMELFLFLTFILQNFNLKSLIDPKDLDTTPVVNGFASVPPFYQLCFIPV

[12] = Luminescence Cell-Based Dose Confirmation HTS to Identify Inhibitors of Platelet Dense Granule Release. [Related pubchem assays: 1663 (Primary HTS), 1678 (Summary of Project)]; format: functional
[13] = molecular target: Luciferin 4-monooxygenase (Photinus pyralis, UniProt P08659); assay: firefly luciferase enzyme inhibitors, dose response, biochemical, luminescence (AID 1891)
Sequence of Luciferin 4-monooxygenase (P08659 whole entry): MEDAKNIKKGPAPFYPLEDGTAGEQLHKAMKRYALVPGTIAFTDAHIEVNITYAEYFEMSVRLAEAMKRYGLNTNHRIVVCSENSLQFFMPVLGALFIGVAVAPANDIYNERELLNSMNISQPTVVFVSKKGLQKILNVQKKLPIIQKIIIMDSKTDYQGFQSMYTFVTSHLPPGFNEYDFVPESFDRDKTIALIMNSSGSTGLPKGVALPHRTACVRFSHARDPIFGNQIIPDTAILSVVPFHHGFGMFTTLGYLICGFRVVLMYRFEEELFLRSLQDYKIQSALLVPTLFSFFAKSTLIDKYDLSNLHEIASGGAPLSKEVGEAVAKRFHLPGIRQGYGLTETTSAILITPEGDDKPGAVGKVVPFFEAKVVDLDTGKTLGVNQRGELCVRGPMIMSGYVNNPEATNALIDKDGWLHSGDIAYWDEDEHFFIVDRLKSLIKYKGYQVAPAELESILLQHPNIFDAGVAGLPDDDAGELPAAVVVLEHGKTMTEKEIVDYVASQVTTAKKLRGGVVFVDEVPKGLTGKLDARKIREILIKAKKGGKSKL

Paired box protein Pax-8 = Paired box protein Pax-8 (Homo sapiens, UniProt Q06710); assay: inhibitors of PAX8-driven TPO luciferase reporter, dose response, RMG-I cells, cherry-pick (AID 687027); format: functional, cell-based;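 further: luciferase reporter driven by Pax8 target thyroperoxidase promoter measured by SteadyGlo luminescence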
Sequence of Paired box protein Pax-8 (Q06710 whole entry): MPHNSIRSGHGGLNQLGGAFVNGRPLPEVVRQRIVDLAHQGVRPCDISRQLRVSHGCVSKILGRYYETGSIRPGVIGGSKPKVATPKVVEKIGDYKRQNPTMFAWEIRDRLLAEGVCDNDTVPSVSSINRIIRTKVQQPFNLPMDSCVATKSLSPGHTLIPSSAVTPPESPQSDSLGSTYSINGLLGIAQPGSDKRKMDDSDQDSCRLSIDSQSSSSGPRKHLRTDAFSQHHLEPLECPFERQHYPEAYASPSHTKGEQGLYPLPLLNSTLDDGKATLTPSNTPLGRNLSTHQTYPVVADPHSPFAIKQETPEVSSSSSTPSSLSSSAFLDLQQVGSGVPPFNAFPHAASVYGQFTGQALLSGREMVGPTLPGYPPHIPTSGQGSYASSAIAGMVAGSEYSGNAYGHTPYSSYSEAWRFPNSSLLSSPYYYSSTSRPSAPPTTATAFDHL

Vero [14] = assay: cells; format: functional, cell-based; conditions: Chlorocebus sabaeus
Vero [15] = assay: cells; format: functional; conditions: Chlorocebus sabaeus

O=C(NCc1ccco1)c1ccc2ccccc2n1
IC50 [1]: > 79.4 µM (inactive) | IC50 [2]: > 79.4 µM (inactive) | IC50 [3]: > 79.4 µM (inactive)

Cc1cc(C)n2nc(SCN3C(=O)c4ccccc4C3=O)nc2n1
AC50 (Cytochrome P450 2D6): inconclusive | AC50 (Cytochrome P450 3A4): 6.31 µM (inconclusive)

COc1ccc(C(=O)Nc2nnc(S(=O)(=O)N3CCOCC3)s2)cc1
IC50 [4]: > 80 µM (inactive)

COc1cccc(OCc2cc(C(=O)NCc3cnc4ccccn34)no2)c1
IC50 (HEK293 [5]): > 20 µM (inactive) | EC50 [6]: > 20 µM (inactive) | EC50 (HEK293 [7]): 12.9 µM (active) | IC50 (HEK293 [8]): > 20 µM (inactive) | IC50 (HEK293 [9]): > 20 µM (inactive) | IC50 (HEK293 [10]): 18.9 µM (active)

COc1ccc(/C=C2/C(=O)NC(=O)N(C3CCCCC3)C2=O)cc1CSc1ccccn1
AC50 [11]: 10 µM (active)

CCC(=O)c1ccc(OCc2ccc(C(=O)OC)cc2)c(OC)c1
AC50 (Cytochrome P450 2C9): 8.91 µM (inconclusive) | AC50 (Cytochrome P450 1A2): 6.31 µM (inconclusive) | AC50 (Cytochrome P450 2D6): inconclusive

CC(C)CNC(=O)c1nc(-c2ccccc2)n(-c2ccccc2)n1
AC50 (Cytochrome P450 2C19): 39.8 µM (inconclusive) | AC50 (Cytochrome P450 2C9): 39.8 µM (inconclusive) | AC50 (Cytochrome P450 1A2): 28.2 µM (inconclusive) | AC50 (Cytochrome P450 2D6): inconclusive

Cc1ccc(S(=O)(=O)c2nc(-c3ccccc3)oc2NCCN2CCOCC2)cc1
IC50 [1]: 75.3 µM (active) | IC50 [2]: > 79.4 µM (inactive) | IC50 [3]: > 79.4 µM (inactive)

Cc1ccc(-n2c(C)cc(/C=c3/sc4nc5ccccc5n4c3=O)c2C)cc1
IC50 (HEK293 [5]): > 20 µM (inactive) | EC50 [12]: > 112 µM (not active) | EC50 [6]: 0.49 µM (active) | EC50 [13]: > 112 µM (not active) | EC50 (HEK293 [7]): 2.95 µM (active) | IC50 (HEK293 [8]): > 20 µM (inactive) | IC50 (HEK293 [9]): 0.48 µM (active) | IC50 (HEK293 [10]): 0.703 µM (active)

CC(=O)O[C@H]1C[C@H](O[C@H]2[C@@H](O)C[C@H](O[C@H]3[C@@H](O)C[C@H](O[C@H]4CC[C@@]5(C)[C@H](CC[C@@H]6[C@@H]5C[C@@H](O)[C@]5(C)[C@@H](C7=CC(=O)OC7)CC[C@]65O)C4)O[C@@H]3C)O[C@@H]2C)O[C@H](C)[C@H]1O[C@@H]1O[C@H](CO)[C@@H](O)[C@H](O)[C@H]1O [LANATOSIDE C]
AC50 (Paired box protein Pax-8): 0.801 µM (active) | IC50 (Vero [14]): > 25 µM (active) | CC50 (Vero [15]): 0.65 µM (active)
